ChEMBL document CHEMBL1201862, “PubChem BioAssay data set” (2004)
The source made the active and inactive calls.

How the values were obtained:
[1] = target: Prothrombin (Homo sapiens, UniProt P00734); assay: Thrombin 1536 HTS Dose Response Confirmation. [Related pubchem assays: 1046 (Thrombin 1536 HTS; hits were confirmed in this assay)]; assay type: functional
[2] = target: T1, Calpain-2 catalytic subunit (Sus scrofa, UniProt P43367); assay: m-calpain protease blockers, concentration series – biochemical, fluorogenic peptide substrate, dose response (AID 1420); assay type: functional
T1 sequence (P43367 whole entry): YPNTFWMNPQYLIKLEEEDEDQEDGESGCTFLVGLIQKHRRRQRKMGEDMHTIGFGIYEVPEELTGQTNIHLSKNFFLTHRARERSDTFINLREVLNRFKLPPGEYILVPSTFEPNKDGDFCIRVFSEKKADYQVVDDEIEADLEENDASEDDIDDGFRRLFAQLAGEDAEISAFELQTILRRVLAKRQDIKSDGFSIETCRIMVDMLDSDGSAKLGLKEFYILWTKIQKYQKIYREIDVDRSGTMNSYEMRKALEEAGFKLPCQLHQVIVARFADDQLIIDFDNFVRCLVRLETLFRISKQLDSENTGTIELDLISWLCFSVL

[3] = target: T2, Leucine aminopeptidase (Plasmodium falciparum 3D7, UniProt Q8IL11); assay: P. falciparum M17LAP inhibitors, primary screen, biochemical, fluorogenic H-Leu-NHMec substrate, 1536-well (AID 1619); assay type: functional
T2 sequence (Q8IL11 whole entry): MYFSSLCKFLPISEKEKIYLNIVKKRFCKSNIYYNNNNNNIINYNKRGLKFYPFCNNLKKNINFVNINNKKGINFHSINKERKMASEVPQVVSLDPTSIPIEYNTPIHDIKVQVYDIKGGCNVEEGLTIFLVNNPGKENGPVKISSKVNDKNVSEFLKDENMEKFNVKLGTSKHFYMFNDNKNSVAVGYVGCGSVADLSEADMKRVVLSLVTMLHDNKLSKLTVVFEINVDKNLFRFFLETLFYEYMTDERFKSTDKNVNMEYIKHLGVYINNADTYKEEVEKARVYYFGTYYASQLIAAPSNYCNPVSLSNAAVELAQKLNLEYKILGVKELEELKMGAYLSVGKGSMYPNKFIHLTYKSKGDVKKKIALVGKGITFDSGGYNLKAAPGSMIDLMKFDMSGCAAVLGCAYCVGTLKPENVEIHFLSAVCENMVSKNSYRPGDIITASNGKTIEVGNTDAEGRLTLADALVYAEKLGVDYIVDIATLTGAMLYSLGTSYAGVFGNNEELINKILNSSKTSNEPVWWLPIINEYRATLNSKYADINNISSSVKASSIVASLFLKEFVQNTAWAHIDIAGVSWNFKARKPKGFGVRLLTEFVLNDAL

[4] = target: T3, Short transient receptor potential channel 4 (Mus musculus, UniProt Q9QUQ5); assay: block of DAMGO-driven TRPC4 calcium entry – cell-based, HEK293 TRPC4/mu-opioid, Fluo-4 calcium, dose response (AID 434942); assay type: functional;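 note: potency of inhibitors blocking the TRPC4 calcium response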
T3 sequence (Q9QUQ5 whole entry): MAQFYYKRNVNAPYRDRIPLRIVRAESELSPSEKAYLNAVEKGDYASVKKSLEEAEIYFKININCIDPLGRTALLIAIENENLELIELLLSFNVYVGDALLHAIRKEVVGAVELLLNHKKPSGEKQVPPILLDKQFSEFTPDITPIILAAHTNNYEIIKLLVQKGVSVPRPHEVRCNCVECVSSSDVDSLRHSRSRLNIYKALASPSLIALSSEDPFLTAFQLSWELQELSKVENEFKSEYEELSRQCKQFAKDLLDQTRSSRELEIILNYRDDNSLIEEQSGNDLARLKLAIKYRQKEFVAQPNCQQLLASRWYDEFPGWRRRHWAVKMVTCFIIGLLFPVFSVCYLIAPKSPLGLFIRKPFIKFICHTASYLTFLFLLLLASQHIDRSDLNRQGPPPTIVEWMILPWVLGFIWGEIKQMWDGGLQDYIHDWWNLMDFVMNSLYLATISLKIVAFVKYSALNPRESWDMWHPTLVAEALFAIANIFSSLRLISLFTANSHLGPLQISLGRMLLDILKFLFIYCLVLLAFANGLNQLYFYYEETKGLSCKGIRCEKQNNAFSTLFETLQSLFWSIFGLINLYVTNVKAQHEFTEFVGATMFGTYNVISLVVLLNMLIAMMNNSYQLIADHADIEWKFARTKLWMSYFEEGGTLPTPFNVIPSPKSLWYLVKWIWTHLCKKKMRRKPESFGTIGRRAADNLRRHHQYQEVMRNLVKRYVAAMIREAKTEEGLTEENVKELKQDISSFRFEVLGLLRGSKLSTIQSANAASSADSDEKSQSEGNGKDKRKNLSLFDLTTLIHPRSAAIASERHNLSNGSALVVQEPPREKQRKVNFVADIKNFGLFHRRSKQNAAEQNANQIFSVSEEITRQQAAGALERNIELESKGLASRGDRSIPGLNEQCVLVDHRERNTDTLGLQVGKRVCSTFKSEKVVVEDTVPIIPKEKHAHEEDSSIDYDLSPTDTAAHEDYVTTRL

[5] = cells; assay type: functional, cell-based
[6] = target: Large T antigen (Simian virus 40, UniProt P03070); assay type: functional, Betapolyomavirus macacae;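 note: Confirmatory-stage PubChem screen for compounds that inhibit SV40 T antigen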
Sequence of Large T antigen (P03070 whole entry): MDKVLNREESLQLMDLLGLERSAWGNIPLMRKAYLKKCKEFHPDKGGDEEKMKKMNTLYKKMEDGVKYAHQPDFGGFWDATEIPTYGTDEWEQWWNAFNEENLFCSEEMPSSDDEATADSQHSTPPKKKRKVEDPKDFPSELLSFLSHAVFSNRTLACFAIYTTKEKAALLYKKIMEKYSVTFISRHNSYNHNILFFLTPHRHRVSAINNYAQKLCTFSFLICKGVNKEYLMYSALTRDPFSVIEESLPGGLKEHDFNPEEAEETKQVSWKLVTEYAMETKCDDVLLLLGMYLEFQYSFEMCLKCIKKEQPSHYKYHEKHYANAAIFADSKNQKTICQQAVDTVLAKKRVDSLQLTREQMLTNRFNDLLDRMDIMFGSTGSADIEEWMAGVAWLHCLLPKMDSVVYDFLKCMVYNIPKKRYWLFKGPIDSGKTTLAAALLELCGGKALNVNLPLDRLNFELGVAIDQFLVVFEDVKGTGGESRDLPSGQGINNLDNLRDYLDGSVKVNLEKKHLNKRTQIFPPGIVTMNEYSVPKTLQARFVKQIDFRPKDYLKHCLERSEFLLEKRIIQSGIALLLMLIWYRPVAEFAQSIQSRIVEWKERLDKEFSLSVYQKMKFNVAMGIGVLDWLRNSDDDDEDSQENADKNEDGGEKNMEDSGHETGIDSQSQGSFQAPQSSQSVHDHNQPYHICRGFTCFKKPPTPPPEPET

[7] = cells; assay type: functional, cell-based; remark: listed apart in the source
[8] = target: Alkaline phosphatase, placental type (Homo sapiens, UniProt P05187); assay: human placental alkaline phosphatase inhibition – biochemical, luminescence, confirmation (AID 1512); assay type: functional
Sequence of Alkaline phosphatase, placental type (P05187 whole entry): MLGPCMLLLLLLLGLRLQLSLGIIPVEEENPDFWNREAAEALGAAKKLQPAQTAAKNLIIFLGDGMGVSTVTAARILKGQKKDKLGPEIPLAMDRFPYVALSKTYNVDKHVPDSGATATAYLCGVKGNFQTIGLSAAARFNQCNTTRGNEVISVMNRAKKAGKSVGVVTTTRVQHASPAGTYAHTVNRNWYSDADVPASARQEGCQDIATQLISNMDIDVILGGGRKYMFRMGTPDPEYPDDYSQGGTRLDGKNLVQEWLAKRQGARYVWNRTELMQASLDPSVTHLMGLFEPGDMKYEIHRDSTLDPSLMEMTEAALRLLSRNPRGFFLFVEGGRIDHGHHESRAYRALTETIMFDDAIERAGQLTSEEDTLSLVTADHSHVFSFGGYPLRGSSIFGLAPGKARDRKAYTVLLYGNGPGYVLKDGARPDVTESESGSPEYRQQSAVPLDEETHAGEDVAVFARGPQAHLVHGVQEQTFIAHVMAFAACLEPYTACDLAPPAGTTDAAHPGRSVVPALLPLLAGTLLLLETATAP

[9] = Luminescence Cell-Based Dose Response HTS to Identify Inhibitors of 5'UTR Stem-Loop Driven Prion Protein mRNA Translation in H4 Neuroglioblastoma Cells. [Related pubchem assays: 1827 (Project Summary), 1813 (Primary HTS)]; assay type: functional
[10] = test system: HEK293; assay: EBV LMP1 TES2 canonical NF-kB signalling blockers – cell-based, HEK293, luciferase, cherry-pick, dose response (AID 588343); assay type: functional, Homo sapiens; conditions: Homo sapiens, HEK293
[11] = alpha-synuclein stem-loop luciferase translation blockers – H4 neuroglioma cells, luminescence, confirmation (AID 1988); assay type: functional, cell-based
[12] = luciferase reporter signal suppression in cells – H4 neuroglioma cells, luminescence, dose response (AID 1990); assay type: functional, cell-based
[13] = OVCAR8 cell viability loss – plate reader, dry powder samples, PAX8 project, dose response (AID 743197); assay type: functional, cell-based; conditions: OVCAR-8
[14] = target: Paired box protein Pax-8 (Homo sapiens, UniProt Q06710); assay: PAX8 transcriptional activity inhibition in RMG-I – RMG-I cells, luciferase, cherry-pick, dose response (AID 687027); assay type: functional, cell-based;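 note: luciferase reporter driven by Pax8 target thyroperoxidase promoter measured by SteadyGlo luminescence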
Sequence of Paired box protein Pax-8 (Q06710 whole entry): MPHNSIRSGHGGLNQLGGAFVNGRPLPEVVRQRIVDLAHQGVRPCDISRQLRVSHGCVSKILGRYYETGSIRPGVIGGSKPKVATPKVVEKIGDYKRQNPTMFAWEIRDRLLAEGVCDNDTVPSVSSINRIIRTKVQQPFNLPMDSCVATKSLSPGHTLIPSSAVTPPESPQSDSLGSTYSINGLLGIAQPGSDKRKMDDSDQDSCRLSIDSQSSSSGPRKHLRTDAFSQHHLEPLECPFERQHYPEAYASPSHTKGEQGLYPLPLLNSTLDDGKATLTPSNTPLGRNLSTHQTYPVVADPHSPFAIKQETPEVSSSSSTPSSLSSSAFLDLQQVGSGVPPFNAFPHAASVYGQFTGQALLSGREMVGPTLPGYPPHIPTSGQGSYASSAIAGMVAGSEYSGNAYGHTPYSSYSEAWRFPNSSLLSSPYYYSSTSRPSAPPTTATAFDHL

[15] = target: T4, Cytochrome P450 1A2 (Homo sapiens, UniProt P05177);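 note: PubChem cytochrome P450 panel assay, CYP1A2 panel member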
T4 sequence (P05177 whole entry): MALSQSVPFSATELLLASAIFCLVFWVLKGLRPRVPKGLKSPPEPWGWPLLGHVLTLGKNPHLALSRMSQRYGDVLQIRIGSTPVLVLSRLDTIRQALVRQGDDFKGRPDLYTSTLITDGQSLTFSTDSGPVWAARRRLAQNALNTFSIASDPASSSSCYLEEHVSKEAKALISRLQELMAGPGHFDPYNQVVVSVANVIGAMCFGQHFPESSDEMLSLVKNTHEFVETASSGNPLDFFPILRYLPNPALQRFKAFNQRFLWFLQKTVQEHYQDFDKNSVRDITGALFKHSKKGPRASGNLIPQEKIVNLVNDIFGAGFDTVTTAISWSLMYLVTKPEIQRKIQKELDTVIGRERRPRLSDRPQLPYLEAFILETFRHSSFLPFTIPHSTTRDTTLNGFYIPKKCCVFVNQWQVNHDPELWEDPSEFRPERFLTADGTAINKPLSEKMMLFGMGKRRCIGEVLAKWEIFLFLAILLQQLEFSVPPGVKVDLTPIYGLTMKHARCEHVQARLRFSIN

[16] = target: Cytochrome P450 2C9 (Homo sapiens, UniProt P11712)
Sequence of Cytochrome P450 2C9 (P11712 whole entry): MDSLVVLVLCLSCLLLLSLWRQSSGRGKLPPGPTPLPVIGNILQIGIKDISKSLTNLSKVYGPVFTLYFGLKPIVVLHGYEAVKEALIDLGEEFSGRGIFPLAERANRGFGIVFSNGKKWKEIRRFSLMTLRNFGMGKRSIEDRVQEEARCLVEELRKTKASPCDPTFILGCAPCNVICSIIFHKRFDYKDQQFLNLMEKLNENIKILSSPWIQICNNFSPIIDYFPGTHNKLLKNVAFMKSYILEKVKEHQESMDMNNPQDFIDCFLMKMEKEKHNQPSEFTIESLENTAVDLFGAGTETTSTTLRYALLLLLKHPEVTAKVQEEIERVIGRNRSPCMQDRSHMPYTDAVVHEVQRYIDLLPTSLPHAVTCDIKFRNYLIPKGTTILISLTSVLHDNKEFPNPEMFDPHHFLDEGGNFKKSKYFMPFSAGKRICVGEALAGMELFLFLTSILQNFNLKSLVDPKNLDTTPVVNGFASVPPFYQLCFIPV

## COC(=O)c1ccc(NC2CC(=O)N(c3ccccc3C)C2=O)cc1 (stereo not given)
[1]
  IC50: > 50 µM (not active)

## CC(=O)C(=NNc1ccc(-n2ccc(C(F)(F)F)n2)cc1)C(C)=O
[2]
  IC50: 2.57 µM (active)

## Cc1ccc(C(=O)Nc2nc(=O)n(C(=O)C3CC3)s2)cc1
[3]
  IC50: 19.3 µM (active)

## Cc1ccc(Cn2ccc(NC(=O)C3C4CCC(C4)C3C(=O)O)n2)cc1 (stereo not given)
[3]
  IC50: 10.2 µM (active)

## CC(C)(C)SCCNS(=O)(=O)c1ccc2ccccc2c1
[2]
  IC50: > 50 µM (not active)

## c1ccc(COC(CN2CCCCCC2)CN2CCCCCC2)cc1
[4]
  EC50: 6.68 µM (active)

## CC(=O)n1nc(-c2cccc(C)c2)nc1SCC(=O)Nc1ccccc1
[1]
  IC50: 0.731 µM (active)

## CS(=O)(=O)c1ccc(C(=O)N2CCc3ccccc3C2)cc1
[2]
  IC50: 0.514 µM (not active)

## Cc1cc(C)cc(Oc2nc(-c3ccccc3)cc(C)c2S(C)(=O)=O)c1
[2]
  IC50: 6.25 µM (not active)

## Cc1c(CCOC(=O)c2ccc([N+](=O)[O-])cc2)sc[n+]1CC(=O)c1ccccc1
[4]
  EC50: 5.96 µM (active)

## COc1ccccc1N1CCc2c(C)nc3c(OC)cccc3c21
[4]
  EC50: 4.73 µM (active)

## O=C(c1ccc(-c2ccc([N+](=O)[O-])cc2)o1)N1CCCCC1
[1]
  IC50: > 50 µM (not active)

## CCc1ccc(N2CC(C(=O)Nc3ccccc3F)CC2=O)cc1 (stereo not given)
[1]
  IC50: > 50 µM (not active)

## CCOc1cc(N2CCOCC2)c(OCC)cc1NC(C)C(=O)N1CCC(C)CC1 (stereo not given)
[5]
  EC50: > 350 µM (not active)
[6]
  IC50: 17.1 µM (active)
[7]
  EC50: > 350 µM (not active)

## CCOC(=O)CCP(=O)(O)C(O)c1ccc(OC)cc1 (stereo not given)
[3]
  IC50: 8.59 µM (active)

## O=C(c1nc2ccccc2s1)N1CCN(c2ccccn2)CC1
[1]
  IC50: > 50 µM (not active)

## CCCc1cc(=O)[nH]c(-n2nc3c(c2O)CCCC3)n1
[8]
  IC50: > 100 µM (inactive)

## OCC1(Cc2ccccc2)CCN(Cc2ccc(C(F)(F)F)cc2)CC1
[4]
  EC50: 2.11 µM (active)

## COc1cc(OC)cc(C(=O)n2cnnc2N)c1
[1]
  IC50: 0.1 µM (active)

## Cc1ccc(/C=C/c2nc3ccccc3s2)s1
[9]
  EC50: 10.7 µM (active)
[10]
  AC50: 4.16 µM (active)
[11]
  EC50: 3.78 µM (active)

## O=C(O)c1cccc(NC(=S)NC(=O)c2ccc(-c3ccccc3)cc2)c1
[2]
  IC50: > 50 µM (not active)

## O=C(NC1(C(F)(F)F)Oc2cc(Cl)c(Cl)cc2O1)N1CCC2(CC1)OCCO2
[8]
  IC50: > 100 µM (inactive)

## CC(NCCC(Cc1ccccc1)c1ccco1)c1ccccc1 (stereo not given)
[4]
  EC50: 1.68 µM (active)

## O=C(Nc1ncccc1O)c1ccc(S(=O)(=O)NCc2ccco2)cc1
[10]
  AC50: 20.7 µM (active)

## CCc1cc(C(=O)N/N=C/c2ccc(O)cc2O)c2ccccc2n1
[9]
  EC50: 13.3 µM (active)
[5]
  EC50: 9.29 µM (active)
[12]
  EC50: 16.7 µM (active)
[11]
  EC50: 7.63 µM (active)
[7]
  EC50: > 350 µM (not active)

## Cc1ccc(S(=O)(=O)N(C)C[C@@H]2OCCCC[C@H](C)Oc3ccc(NS(=O)(=O)c4ccc(F)cc4)cc3C(=O)N([C@H](C)CO)C[C@H]2C)cc1
[13]
  AC50: 55.9 µM (active)
[14]
  AC50: 5.5 µM (active)

## C[C@@H]1CN([C@H](C)CO)C(=O)c2c(c3ccccc3n2C)-c2ccccc2CO[C@H]1CN(C)C(=O)Nc1cccc(C(F)(F)F)c1
[13]
  AC50: > 70 µM (inactive)
[14]
  AC50: 5.56 µM (active)

## C[C@@H]1CN([C@@H](C)CO)C(=O)c2c(c3ccccc3n2C)-c2ccccc2CO[C@H]1CN(C)S(=O)(=O)c1ccccc1F
[13]
  AC50: > 70 µM (inactive)
[14]
  AC50: 5.88 µM (active)

## COc1cccc(S(=O)(=O)N(C)C[C@@H]2Oc3cc(C4=CCCCC4)ccc3S(=O)(=O)N([C@@H](C)CO)C[C@H]2C)c1
[13]
  AC50: 49.6 µM (active)
[14]
  AC50: 14.5 µM (active)

## COc1cc(C(=O)Oc2ccccc2/C=N/NC(=O)c2ccc(C)cc2)cc(OC)c1OC
[15]
  AC50: 2.24 µM (inconclusive)
[5]
  EC50: > 350 µM (not active)
[16]
  AC50: 0.316 µM (inconclusive)
[7]
  EC50: > 350 µM (not active)
